Laboratory results from ChEMBL document CHEMBL1121735, “Synthesis and adrenoceptor affinity of some highly polar beta-substituted catecholamines” (J Med Chem, 1981).

Columns and labels:
Adrenergic receptor beta = Adrenergic receptor beta (Rattus norvegicus, UniProt P18090+P10608+P26255); assay: Binding affinity against Beta adrenergic receptor using [3H]dihydroalprenolol radioligand in rat brain homogenate; type: tissue-based
[1] = target: Adrenergic receptor alpha; assay: Binding affinity against Alpha adrenergic receptor using [3H]dihydroergocryptine radioligand in rat brain homogenate; type: tissue-based

| IC50 (Adrenergic receptor beta) | IC50 [1] | SMILES |
| --- | --- | --- |
| 0.00011 M l-1 | 0.00001 M l-1 | CNCC(c1ccc(O)c(O)c1)S(=O)(=O)O (racemic) |
| 0.00013 M l-1 | 3.6e-6 M l-1 | NCC(c1ccc(O)c(O)c1)S(=O)(=O)O (racemic) |
| 9.1e-6 M l-1 | 0.000033 M l-1 | CC(C)NCC(c1ccc(O)c(O)c1)S(=O)(=O)O (racemic) |
